The METLIN SMRT retention time set (Domingo-Almenara et al. 2019)

Assay: gradient 5% acetonitrile 3 min, to 50% in 2 min, to 85% in 15 min, held 3 min, 100 µL/min
Conditions: column: Zorbax Extend-C18 2.1 x 50 mm; eluents: water / acetonitrile, 0.1% formic acid
Method in brief: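 The system's dead and dwell volumes were 40 μL and 900 μL, with a Zorbax Extend-C18 column (2.1 × 50 mm, 1.8 μm) run at 100 μL/min in water and acetonitrile containing 0.1% formic acid each. Pure standards were analyzed in mixtures of ~100 molecules by HPLC–quadrupole time-of-flight mass spectrometry in positive and negative ionization mode. Retention time was assigned from computationally picked, manually inspected adduct peaks.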

SMILES	RP-LC retention time
CCOC(=O)COc1cc(-c2ccccc2)nc2ccc(NC(=O)c3ccco3)cc12	743 s
O=C(Nc1ccc(N2CCOCC2)cc1)C1CCCN(c2ccnc(-c3cccc(F)c3)n2)C1 (centres undefined)	649 s
CC(C)n1cnc2cc(CNC(=O)c3nn(C)c4ccccc34)ccc21	629 s
Cc1ccc(C(C)NC(=O)Cn2cc(-c3noc(-c4ccc(F)cc4)n3)nc2C)cc1 (centres undefined)	907 s
CC(C)n1cnc2cc(CNC(=O)Cc3cccc(F)c3)ccc21	607 s
O=C(CN1C(=O)c2ccccc2C1=O)NCCS(=O)(=O)N1CCc2ccccc2C1	744 s
CN(C)C(=O)c1cc2c(s1)CCC(C(=O)N1CCN(C3CCCC3)CC1)C2 (centres undefined)	573 s
CCc1noc(NC(C)=O)c1-c1ccc(OC)c(S(=O)(=O)Nc2ccc(C)c(F)c2)c1	836 s
COc1ccccc1NS(=O)(=O)c1cn(CC(C)C)c2ncccc12	979 s
Cc1ccc(CNc2ncccc2-c2nnc(-c3ccc(Cl)cc3)o2)o1	1350 s
Nc1n[nH]c(-c2ccccc2)n1	619 s
O=C(CCCc1nc2cccnc2n1Cc1ccc(F)cc1)N1CCCC1	707 s
O=C(O)c1cccnc1NCc1cccc(F)c1	655 s
Cc1ccc(S(=O)(=O)N2CC[C@H](c3n[nH]c(C)n3)[C@H](N(C)C)C2)c(C)c1	623 s
COc1ccccc1N1C(=O)N(c2ccc([N+](=O)[O-])cc2)C2CS(=O)(=O)CC21 (centres undefined)	745 s
Cc1cccc2nnc(N3CCN(C(=O)c4ccc(Cl)cc4)CC3)n12	629 s
CCOc1ccccc1NC(=O)N1CCN(c2cnn3c(C)nnc3c2)CC1	658 s
CCc1ccccc1NC(=O)C1CCN(S(=O)(=O)c2c(C)nn(-c3ccccc3)c2C)CC1	985 s
CCNC(=O)c1cnn(-c2cc(-c3nc(CC)no3)ccn2)c1C	806 s
CC(C)N1CCn2c(nc3cc(C(=O)NCc4ccccc4C(F)(F)F)ccc32)C1=O	768 s
CCS(=O)(=O)Nc1ccc2nc(N3CCN(c4cc(C)ccc4C)CC3)cc(C(=O)O)c2c1	607 s
Cc1[nH]c(C)c(S(=O)(=O)N2CCC(C(=O)NC3CCCCCCC3)CC2)c1C(=O)N1CCCC1	745 s
CCn1c(C2CCN(S(=O)(=O)c3cccc4nsnc34)C2)nc2cccnc21 (centres undefined)	705 s

SMILES	RP-LC retention time
O=C(Nc1ccc(Cl)cc1)C1CCc2nc(N3CCOCC3)ncc2C1 (centres undefined)	757 s
O=C(Nc1ccc(C2(C(=O)N3CCN(c4ccccn4)CC3)CCC2)cc1)C1CC1	614 s
Cc1ccc(-c2csc(NC(=O)COc3cc(C)cc(C)c3)n2)cc1	1270 s
CCOc1ccccc1NC(=O)C1CCN(c2cncnc2N2CCOCC2)CC1	651 s
CCc1nn2c(CNS(=O)(=O)Cc3ccccc3F)c(-c3ccccc3)nc2s1	948 s
COc1cc([N+](=O)[O-])ccc1NC(=O)c1cccc(Br)c1	1030 s
CCNC(=O)c1sc(-c2ccc(C)cc2)nc1C	850 s
Cc1cc(C)c(NC(=O)C2CCCN(S(=O)(=O)c3cc(-c4noc(C)n4)cs3)C2)c(C)c1 (centres undefined)	1110 s
Cn1c(N2CCCC(C(=O)N3CCN(Cc4ccccc4)CC3)C2)cc(=O)n(C)c1=O (centres undefined)	597 s
COc1cccc(NC(=O)c2cc3c(s2)CN(C2CC2)C3)c1	760 s
CCc1onc(C)c1C1CCCN1C(=O)Cc1ccccc1F (centres undefined)	823 s
CC(C)c1ccc(S(=O)(=O)N2CCC(c3ccncc3)CC2)cc1	749 s
Cc1cc(Br)ccc1NC(=O)CCc1c(-c2ccc(F)cc2)nc2ccccn12	728 s
COC(=O)c1ccccc1Nc1c(-c2ccc(OC)cc2)nc2cnccn12	948 s
O=c1c2nc(-c3cccc(Cl)c3)cn2ccn1-c1ccc(F)cc1	864 s
Cc1ccc(-c2noc(C3CC3)n2)cc1S(=O)(=O)N1CCC(C(=O)N2CCc3ccccc32)CC1	1140 s
Cc1nn(C(C)C(=O)NCCCN2CCC(N3CCCCC3)CC2)c(=O)c2c1sc1ccccc12 (centres undefined)	592 s
O=C(O)c1ccc(Nc2c3ccccc3nc3ccccc23)cc1	629 s
Cc1ccc(NC(=O)C2CCN(S(=O)(=O)c3ccc4c(c3)sc(=O)n4C)CC2)cc1Cl	978 s
Cc1cccc(-c2noc(Cn3nc(-c4ccc(F)cc4)ccc3=O)n2)c1	1060 s
CC(C)NC(=O)c1ccc(-c2nc3cc(NS(=O)(=O)c4ccc(F)c(F)c4)ccc3n2C)cc1	721 s
CCn1cnc(S(=O)(=O)N2CCC(C(=O)N3CCN(c4ccc(F)cc4)CC3)CC2)c1	762 s
COc1cccc(-c2nc(-c3ccc4c(c3)ncn4CCN3CCCCC3)no2)c1	657 s

SMILES	RP-LC retention time
CCOc1ccccc1C1NC(=O)N(CC(=O)NC2CCCCC2)C2=C1C(=O)OC2 (centres undefined)	722 s
O=C(NCc1cccnc1Oc1ccccc1)c1ccco1	685 s
COc1ccc(OC)c(S(=O)(=O)Nc2ccc(Br)cc2C)c1	945 s
CC(Cc1ccco1)NC(=O)CN1C(=O)CN(C(=O)NCc2ccccc2)c2ccccc21 (centres undefined)	816 s
C=CCn1nnnc1SCC(=O)Nc1ccc(C(=O)OC)cc1	701 s
Cc1ccccc1CNC(=O)C1CCN(S(=O)(=O)c2ccc3c(c2)NC(=O)CO3)CC1	777 s
Cc1ccc(C(=O)N2CCC3(C2)C(=O)N(C)c2ccccc23)cc1 (centres undefined)	792 s
Cc1ccc(C)c(NC(=O)Cn2nc3n(c2=O)CCCCC3)c1	722 s
Cc1ccc(-c2ccc(N3CCCC(C(=O)NCC(C)C)C3)nn2)cc1C (centres undefined)	737 s
CN1C(=O)C2(CCN(C(=O)NC3CCCCC3)CC2)c2ccccc21	807 s
COc1ccc(OC)c(-c2csc(-c3nnn(-c4ccccc4)c3N)n2)c1	1080 s
Cc1ccc(CN2C(=O)NC3(CCCN(C(=O)c4ccc5c(c4)OCO5)C3)C2=O)cc1 (centres undefined)	819 s
CCc1ccc(-c2noc(Cn3c(=O)n(-c4ccc(Cl)cc4)c(=O)c4sccc43)n2)cc1	1160 s
O=C(COc1ccc(Cl)cc1Cl)NCC(=O)N1CCOC(c2ccccc2)C1 (centres undefined)	927 s
O=C(Cc1cccc(Cl)c1)N1CCN(c2nc(CN3CCOCC3)cs2)CC1	644 s
COc1ccc(NC(=O)c2cn(-c3cc(N(C)C)ncn3)cn2)cc1F	782 s
Cn1c(CNC(=O)C2(Cc3ccccc3)CCCCC(=O)N2)nc2ccccc21 (centres undefined)	630 s
Cc1cc(C)n(CCC(=O)NC2CCN(c3ccc(=O)[nH]n3)C2)n1 (centres undefined)	579 s
CCn1cnc(S(=O)(=O)N2CCC(C(=O)NCCc3ccccc3)CC2)c1	697 s
CCn1c(=O)c(C(=O)NCc2cccc(OC)c2)nc2cccnc21	780 s
CCOc1cccc(C2CC(=O)NC3=C2C(=O)C(C(=O)OC)C(C)C3)c1 (centres undefined)	750 s
CC1=C(c2ccccc2)S(=O)(=O)N=C1N1CCCN(C(=O)CC(C)C)CC1	803 s
COC(=O)CC(=O)Nc1cc2c(cc1N1CCCC1)n(C)c(=O)n2C	565 s

SMILES	RP-LC retention time
Cc1cccc(CNC(=O)c2cn3ccncc3n2)c1	705 s
CC(C)c1ccc(-c2c(N3CCN(c4ccccn4)CC3)c(=O)c2=O)cc1	756 s
Fc1ccc(-c2noc(CCc3nnc4ccc(N5CCN(Cc6ccccc6)CC5)nn34)n2)cc1	656 s
Cn1cnc(S(=O)(=O)N2CCC(c3noc(-c4ccncc4)n3)C2)c1 (centres undefined)	628 s
CS(=O)(=O)N1CCC(OC2CCN(C(=O)c3cccnc3)CC2)CC1	583 s
CCSc1ccc(-c2cccc(NC(=O)CC)c2)nn1	787 s
CCn1cnc(S(=O)(=O)N2CCCC(C(=O)Nc3cc(C)cc(C)c3)C2)c1 (centres undefined)	803 s
O=C(Nc1ccc(C2(C(=O)N3CCN(c4ccccc4F)CC3)CCC2)cc1)C1CC1	944 s
CC(C)CCNC(=O)c1cc2c(s1)N(C)CCC2	928 s
COCCNC(=O)c1sc2ncn(CC(=O)N3CCCCC3C)c(=O)c2c1C (centres undefined)	679 s
COCCn1cc(CCNC(=O)Nc2ccc(Br)cc2F)c2cccnc21	834 s
O=C(O)c1nnn(-c2ccc(Cl)cc2)c1C(F)(F)F	828 s
Cc1nn(CC(=O)N2CCOCC2)c(=O)c2c(-n3cccc3)n(-c3ccc(F)cc3)nc12	809 s
COc1ccc(NC(=O)Cn2c(C)cc(-c3nnc(-c4ccco4)o3)c2C)cc1F	865 s
Cc1cc(Cl)ccc1S(=O)(=O)N1CCn2c(nn(CC3CC3)c2=O)C1	872 s
COc1ccc(CCC(=O)N2CCN(c3cc(C)c4ccccc4n3)CC2)cc1OC	645 s
Cc1ccccc1OCC1c2ccsc2CCN1C(=O)CN(CC1CCCO1)C(=O)NC(C)(C)C (centres undefined)	1140 s
Clc1ccccc1-c1nc(-c2ccc(-n3ccnc3)nc2)no1	749 s
CC(=O)Nc1ccc(OCC(=O)NC2CCN(Cc3ccccc3)CC2)nc1	572 s
CCOC(=O)c1cccc(Nc2c(-c3ccc(SC)cc3)nc3cnccn23)c1	950 s
